Test results from PMC11822212, “High-throughput screening identifies Aurora kinase B as a critical therapeutic target for Merkel cell carcinoma” (Nature Communications, 2025).
Read-outs that look alike come from different tables or passages of the source.

Experiments:
Assay in all cases: qHTS cell viability (CellTiter-Glo, 72 h; primary and follow-up small molecule screen)
Type in all cases: cell-based, human
[1] = tested on: MCC13 cells (VN-MCC)
[2] = tested on: MCC26 cells (VN-MCC)
[3] = tested on: UISO cells (VN-MCC)
[4] = tested on: WAGA cells (VP-MCC)
[5] = tested on: MKL-1 cells (VP-MCC)
[6] = tested on: MKL-2 cells (VP-MCC)
[7] = follow-up screen, MCC13, replicate 1
[8] = follow-up screen, MCC13, replicate 2
[9] = follow-up screen, MCC13, replicate 3
[10] = follow-up screen, MCC26, replicate 1
[11] = follow-up screen, MCC26, replicate 2
[12] = follow-up screen, MCC26, replicate 3
[13] = follow-up screen, UISO, replicate 1
[14] = follow-up screen, UISO, replicate 2
[15] = follow-up screen, UISO, replicate 3
[16] = follow-up screen, WAGA, replicate 1
[17] = follow-up screen, WAGA, replicate 2
[18] = follow-up screen, WAGA, replicate 3
[19] = follow-up screen, MKL-1, replicate 1
[20] = follow-up screen, MKL-1, replicate 2
[21] = follow-up screen, MKL-1, replicate 3
[22] = follow-up screen, MKL-2, replicate 1
[23] = follow-up screen, MKL-2, replicate 2
[24] = follow-up screen, MKL-2, replicate 3

| SMILES | Area under the dose-response curve (AUC) MCC13 Replicate 1 [1] | Area under the dose-response curve (AUC) MCC13 Replicate 2 [1] | Area under the dose-response curve (AUC) MCC13 Replicate 1 [1, 7] | Area under the dose-response curve (AUC) MCC13 Replicate 2 [1, 8] | Area under the dose-response curve (AUC) MCC13 Replicate 3 [1, 9] | Area under the dose-response curve (AUC) MCC26 Replicate 1 [2, 10] | Area under the dose-response curve (AUC) MCC26 Replicate 2 [2, 11] | Area under the dose-response curve (AUC) MCC26 Replicate 3 [2, 12] | Area under the dose-response curve (AUC) UISO Replicate 1 [3, 13] | Area under the dose-response curve (AUC) UISO Replicate 2 [3, 14] | Area under the dose-response curve (AUC) UISO Replicate 3 [3, 15] | Area under the dose-response curve (AUC) WAGA Replicate 1 [4, 16] | Area under the dose-response curve (AUC) WAGA Replicate 2 [4, 17] | Area under the dose-response curve (AUC) WAGA Replicate 3 [4, 18] | Area under the dose-response curve (AUC) MKL-1 Replicate 1 [5, 19] | Area under the dose-response curve (AUC) MKL-1 Replicate 2 [5, 20] | Area under the dose-response curve (AUC) MKL-1 Replicate 3 [5, 21] | Area under the dose-response curve (AUC) MKL-2 Replicate 1 [6, 22] | Area under the dose-response curve (AUC) MKL-2 Replicate 2 [6, 23] | Area under the dose-response curve (AUC) MKL-2 Replicate 3 [6, 24] | other results |
| --- | --- | --- | --- | --- | --- | --- | --- | --- | --- | --- | --- | --- | --- | --- | --- | --- | --- | --- | --- | --- | --- |
| C[n+]1cc2c3c(ccc2c2ccc4cc5c(cc4c21)OCO5)OCO3 [Sanguinarine] | 361.4 | 359.5 | – | – | – | – | – | – | – | – | – | – | – | – | – | – | – | – | – | – | Area under the dose-response curve (AUC) MCC13 Replicate 3 [1]: 378.6; Area under the dose-response curve (AUC) MCC26 Replicate 1 [2]: 339.9; Area under the dose-response curve (AUC) MCC26 Replicate 2 [2]: 348.4; Area under the dose-response curve (AUC) MCC26 Replicate 3 [2]: 364.0; Area under the dose-response curve (AUC) UISO Replicate 1 [3]: 370.0; Area under the dose-response curve (AUC) UISO Replicate 2 [3]: 363.9; Area under the dose-response curve (AUC) UISO Replicate 3 [3]: 365.4; Area under the dose-response curve (AUC) WAGA Replicate 1 [4]: 371.2; Area under the dose-response curve (AUC) WAGA Replicate 2 [4]: 384.9; Area under the dose-response curve (AUC) WAGA Replicate 3 [4]: 367.1; Area under the dose-response curve (AUC) MKL-1 Replicate 1 [5]: 358.8; Area under the dose-response curve (AUC) MKL-1 Replicate 2 [5]: 334.5; Area under the dose-response curve (AUC) MKL-1 Replicate 3 [5]: 363.7; Area under the dose-response curve (AUC) MKL-2 Replicate 1 [6]: 328.8; Area under the dose-response curve (AUC) MKL-2 Replicate 2 [6]: 346.3; Area under the dose-response curve (AUC) MKL-2 Replicate 3 [6]: 358.6 |
| CN[C@@H]1[C@H](O)[C@H](NC)[C@H]2O[C@@]3(O)C(=O)C[C@@H](C)O[C@H]3O[C@@H]2[C@H]1O.Cl.Cl.O.O.O.O.O [Spectinomycin hydrochloride] | – | – | 504.6 | 484.6 | 486.4 | 469.4 | 428.8 | 486.9 | 480.2 | 491.5 | 485.2 | 531.5 | 530.5 | 510.1 | 495.1 | 464.4 | 515.8 | 495.5 | 540.4 | 501.9 | – |
| O[C@H]1[C@H]2[C@H](O)CCCN2C[C@H]1O [Swainsonine] | 474.5 | 467.6 | – | – | – | – | – | – | – | – | – | – | – | – | – | – | – | – | – | – | Area under the dose-response curve (AUC) MCC13 Replicate 3 [1]: 453.7; Area under the dose-response curve (AUC) MCC26 Replicate 1 [2]: 425.6; Area under the dose-response curve (AUC) MCC26 Replicate 2 [2]: 420.4; Area under the dose-response curve (AUC) MCC26 Replicate 3 [2]: 449.5; Area under the dose-response curve (AUC) UISO Replicate 1 [3]: 446.0; Area under the dose-response curve (AUC) UISO Replicate 2 [3]: 458.3; Area under the dose-response curve (AUC) UISO Replicate 3 [3]: 417.9; Area under the dose-response curve (AUC) WAGA Replicate 1 [4]: 517.4; Area under the dose-response curve (AUC) WAGA Replicate 2 [4]: 504.3; Area under the dose-response curve (AUC) WAGA Replicate 3 [4]: 463.6; Area under the dose-response curve (AUC) MKL-1 Replicate 1 [5]: 483.5; Area under the dose-response curve (AUC) MKL-1 Replicate 2 [5]: 459.4; Area under the dose-response curve (AUC) MKL-1 Replicate 3 [5]: 455.2; Area under the dose-response curve (AUC) MKL-2 Replicate 1 [6]: 462.0; Area under the dose-response curve (AUC) MKL-2 Replicate 2 [6]: 456.2; Area under the dose-response curve (AUC) MKL-2 Replicate 3 [6]: 445.8 |
| CC(/C=C/C(=O)NO)=C\[C@@H](C)C(=O)c1ccc(N(C)C)cc1 [TSA] | 419.6 | 438.9 | – | – | – | – | – | – | – | – | – | – | – | – | – | – | – | – | – | – | Area under the dose-response curve (AUC) MCC13 Replicate 3 [1]: 399.7; Area under the dose-response curve (AUC) MCC26 Replicate 1 [2]: 375.6; Area under the dose-response curve (AUC) MCC26 Replicate 2 [2]: 383.1; Area under the dose-response curve (AUC) MCC26 Replicate 3 [2]: 360.2; Area under the dose-response curve (AUC) UISO Replicate 1 [3]: 357.7; Area under the dose-response curve (AUC) UISO Replicate 2 [3]: 378.3; Area under the dose-response curve (AUC) UISO Replicate 3 [3]: 338.8; Area under the dose-response curve (AUC) WAGA Replicate 1 [4]: 341.0; Area under the dose-response curve (AUC) WAGA Replicate 2 [4]: 323.1; Area under the dose-response curve (AUC) WAGA Replicate 3 [4]: 341.7; Area under the dose-response curve (AUC) MKL-1 Replicate 1 [5]: 401.2; Area under the dose-response curve (AUC) MKL-1 Replicate 2 [5]: 324.1; Area under the dose-response curve (AUC) MKL-1 Replicate 3 [5]: 329.2; Area under the dose-response curve (AUC) MKL-2 Replicate 1 [6]: 276.9; Area under the dose-response curve (AUC) MKL-2 Replicate 2 [6]: 277.0; Area under the dose-response curve (AUC) MKL-2 Replicate 3 [6]: 326.7 |
| C/C=C(/C)C(=O)O[C@H]1C(C)=C2[C@H]([C@@H]1OC(=O)CCCCCCC)[C@@](C)(OC(C)=O)C[C@H](OC(=O)CCC)[C@@]1(O)[C@H]2OC(=O)[C@@]1(C)O [Thapsigargin] | – | – | 289.0 | 272.1 | 274.4 | 278.4 | 281.8 | 214.4 | 207.4 | 234.5 | 207.7 | 336.3 | 303.0 | 289.2 | 384.9 | 385.8 | 395.7 | 322.6 | 308.5 | 284.8 | – |
| CN(C)C(=S)SSC(=S)N(C)C [Thiram] | – | – | 426.5 | 421.8 | 374.2 | 337.3 | 393.8 | 315.2 | 236.0 | 292.8 | 254.7 | 336.4 | 438.2 | 469.3 | 288.7 | 292.8 | 242.1 | 303.0 | 281.4 | 269.4 | – |
| N#CC(=C(/N)Sc1ccccc1N)/C(C#N)=C(\N)Sc1ccccc1N [U-0126] | – | – | 475.9 | 463.7 | 403.4 | 467.3 | 454.7 | 472.7 | 414.2 | 403.9 | 361.8 | 550.5 | 484.0 | 458.9 | 488.8 | 473.7 | 468.2 | 434.1 | 447.4 | 479.4 | – |
| COc1cc(O)c2c(c1)oc(=O)c1c3cc(O)c(O)cc3oc21 [WEDELOLACTONE] | 452.7 | 445.8 | – | – | – | – | – | – | – | – | – | – | – | – | – | – | – | – | – | – | Area under the dose-response curve (AUC) MCC13 Replicate 3 [1]: 440.3; Area under the dose-response curve (AUC) MCC26 Replicate 1 [2]: 436.4; Area under the dose-response curve (AUC) MCC26 Replicate 2 [2]: 432.2; Area under the dose-response curve (AUC) MCC26 Replicate 3 [2]: 441.9; Area under the dose-response curve (AUC) UISO Replicate 1 [3]: 275.6; Area under the dose-response curve (AUC) UISO Replicate 2 [3]: 271.0; Area under the dose-response curve (AUC) UISO Replicate 3 [3]: 228.5; Area under the dose-response curve (AUC) WAGA Replicate 1 [4]: 442.4; Area under the dose-response curve (AUC) WAGA Replicate 2 [4]: 419.0; Area under the dose-response curve (AUC) WAGA Replicate 3 [4]: 421.6; Area under the dose-response curve (AUC) MKL-1 Replicate 1 [5]: 490.5; Area under the dose-response curve (AUC) MKL-1 Replicate 2 [5]: 454.4; Area under the dose-response curve (AUC) MKL-1 Replicate 3 [5]: 448.6; Area under the dose-response curve (AUC) MKL-2 Replicate 1 [6]: 426.5; Area under the dose-response curve (AUC) MKL-2 Replicate 2 [6]: 409.5; Area under the dose-response curve (AUC) MKL-2 Replicate 3 [6]: 433.4 |
| Cc1ccc(NC(=O)c2cccc(N(C)C)c2)cc1NC(=O)c1ccc(O)cc1 [ZM-336372] | – | – | 498.2 | 493.5 | 506.1 | 438.1 | 425.8 | 478.4 | 448.6 | 464.6 | 456.5 | 500.4 | 604.1 | 537.5 | 480.0 | 490.6 | 522.7 | 501.8 | 535.1 | 493.2 | – |
